Assay: Inhibition of Burkholderia pseudomallei beta-CA incubated for 15 mins by stopped-flow CO2 hydration assay

SMILES	Ki
F[P-](F)(F)(F)(F)F.[Na+]	> 100 mM
OB(O)c1ccccc1 [PHENYLBORONIC ACID]	> 100 mM
[N-]=[N+]=[N-] [SODIUM AZIDE]	> 100 mM
O=S([O-])O.[Na+] [SODIUM BISULFITE]	> 100 mM
N#CO [SODIUM CYANATE]	6.8 mM
[F-].[Na+] [SODIUM FLUORIDE]	> 100 mM
[O-][Cl+3]([O-])([O-])O [SODIUM PERCHLORATE]	> 100 mM
O=S(=O)(O)OOS(=O)(=O)O [SODIUM PERSULFATE]	> 100 mM
O=BOB(O)OB(O)OB=O [SODIUM TETRABORATE]	> 100 mM
F[B-](F)(F)F.[Na+] [SODIUM TETRAFLUOROBORATE]	> 100 mM
